These results are taken from publication PMC12203428, “Discovery of Clonixeril as a Sub-Femtomolar Modulator of the Human STING Receptor” (ACS Central Science, 2025).

“Also recorded” adds a separate entry of the source.

The target in one test is T1, His-hSTING CTD (Homo sapiens, UniProt Q86WV6, H232R).
T1 construct: purchased Invivogen (USA) or Cayman Chemicals (USA)
Put plainly: Surface plasmon resonance. To be noted: without 2′,3′-cGAMP competition; read-out: KD (SPR). Format: binding. As to the method: SPR was employed for binding measurements using the His-tagged hSTING^WT CDN domain. A GE Healthcare Biacore T200 was equipped with a Ni-NTA chip. […] The sensorgrams were analyzed using Biacore T200 Software 3.0 and steady state was measured at 4 s before injection stop, exported into Graphpad, and fit versus concentration using a one site specific binding model to calculate the apparent equilibrium dissociation constant (K D). Where appropriate, kinetics were measured using a 1:1 Langmuir binding model with R max set to local to obtain the association rate (K on), dissociation (K off)

The test system of test [1] is hSTING oligomerization in HEK293S cells. The test is described as follows: Clear native PAGE of hSTING oligomerization in HEK293S cells. Format: cell-based, human. Conditions: CXL 1 h, then 100 nM diABZI3 2 h. As to the method: To determine whether the results we observed in the DLS experiments could be recapitulated in cellulo, where full-length hSTING is present, we used HEK293T cells transfected with WT hSTING (referred to herein as HEK293S cells) to perform hSTING clear native PAGE experiments. […] Thus, HEK293S cells were harvested following treatment with 100 nM diABZI3 for 2 h, following a 1 h treatment of varying concentrations of CXL.
Invitrogen NativePAGE Sample Prep Kit Catalog number: BN2008, Invitrogen NativePAGE Running Buffer Kit Catalog number: BN2007 and Invitrogen NativePAGE 4 to 16%, Bis-Tris, 1.0 mm, Mini Protein Gels, 10 wells, (Cat. # BN1002BOX). Cells were harvested and CXL was added at varying concentrations for 1 h and followed by 2 h of diABZI3 at 100 nM. To the mammalian cells harvested in 1 mL cell culture, add 0.2 mL lysis buffer containing 10 mM HEPES, pH 7.5,150 mM NaCl, 5% glycerol, protease inhibitor cocktail, and 0.025% digitonin. Cells were lysed by sonicating for two rounds of 15 s each while cooling the sample on ice. Centrifuge the lysate at 20,000g for 10 min at 4 °C. Aliquot the supernatant into microcentrifuge tubes. To prepare the sample for loading a total volume of 20 μL NativePAGE including Sample Buffer (4×) 5 μLSTING supernatant, 14.5 μL and Ponceau S-dye: 0.5 μL. 1X NativePAGE Anode Buffer: Add 30 mL of 20X NativePAGE Running Buffer to 570 mL of deionized water. […]

Test [2] concerns p-IRF3 in HEK293S cells (hSTING pathway). Put plainly: Phospho-IRF3 Western blot in HEK293S cells with diABZI3. Type of test: cell-based, human. To be noted: 100 fM compound, 100 nM diABZI3, preliminary.
Experimental: HEK293T cells transfected with hSTINGWT cells were seeded in a 6-well plate in DMEM
(supplemented with 10% heat-inactivated fetal bovine serum, 1X Corning Penicillin-Streptomycin
solution and 0.01mg/mL Blasticidin). Upon reaching ~80% confluence, cells were pretreated with
varying concentrations of CXL in FBS-free DMEM for 2 hours. This was followed by treatment
with diABZI3 (100nM) for 1 hour. The cells were scraped, harvested by centrifugation at 1000 x g
for 3 mins. The resulting pellet is resuspended in 1X PBS with 1X Halt protease & phosphatase
inhibitor and 1% NP-40. Cell lysis was performed by probe sonication. The cell lysate is further
denatured in 1X SDS loading buffer by boiling for 10 mins and separated by SDS-PAGE (4-20%
gel). The separated proteins were electrically transferred to a PVDF membranes separately,
which was probed with primary (α-pIRF3, α-IRF3 & α-STING) and secondary (goat anti-rabbit IR
dye 680 & goat anti-mouse IR dye 800CW) antibodies. The blots were visualized using a LICOR
Image Analyzer. All the experiments were performed at least in duplicate.
The next test has as its system hSTING CTD. The test is described as follows: Differential scanning fluorimetry (thermal shift). Format: binding, human. To be noted: 200 μM.
The test system of test [3] is hSTING WT pathway (THP1 Dual KI-hSTING-R232 cells, IRF3 luciferase reporter).
Experimental: 2 Luciferase assay utilizing monocytic leukemia (THP-1) cells. Cells (Invivogen THP1 Dual KI-hSTING-R232; wild type) were analyzed for activation of the hSTING WT pathway via an IRF3 luciferase reporter. Luminescence is reported in relative luminescence units (RLU).
A study was performed to determine that five hundred thousand cells/mL was the optimal cell density. An optimization study was performed to determine the maximum DMSO percentage so as not to impact the viability of the cells. […] The chosen concentration was 4 μM. The cells were tested with lipofectamine and compared to wells prepared without lipofectamine.
In the next test the target is SUMO-hSTING CTD (Homo sapiens, UniProt Q86WV6, H232R). The test is described as follows: Dynamic light scattering of STING oligomerization.
SUMO-hSTING CTD, sequence (Q86WV6 155-343 H232R): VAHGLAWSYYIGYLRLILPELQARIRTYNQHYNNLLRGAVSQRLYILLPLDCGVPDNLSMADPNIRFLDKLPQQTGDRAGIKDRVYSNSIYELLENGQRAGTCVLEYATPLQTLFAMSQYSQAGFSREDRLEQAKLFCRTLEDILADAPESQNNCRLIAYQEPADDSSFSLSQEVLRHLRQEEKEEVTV

T1 sequence (Q86WV6 153-340 H232R): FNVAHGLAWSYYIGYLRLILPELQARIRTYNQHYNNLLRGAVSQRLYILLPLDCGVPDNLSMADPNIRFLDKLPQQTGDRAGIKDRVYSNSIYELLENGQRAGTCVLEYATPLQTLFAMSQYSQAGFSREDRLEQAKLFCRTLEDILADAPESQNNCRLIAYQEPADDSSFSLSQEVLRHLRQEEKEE
Experimental for SUMO-hSTING CTD: (B) DLS was performed for 2 h (n = 960 measurements) with 50 nM STING exposed to analytes. […] Blue blocks indicate size counts as a percentage to overall mass over selected mass ranges. […] Measurements were made using a Malvern Zetasizer Nano ZS set to 40 measurements at 1 s/measurement and 24 runs.

For `Cc1c(Cl)cccc1Nc1ncccc1C(=O)OCC(O)CO` (stereo not shown) [CXL, clonixeril], the dissociation constant Kd on His-hSTING CTD worked out at 430 ± 140 nM. Also, the “Effect on hSTING oligomerization” value in test [1] was “reduces hSTING oligomerization at concentrations down to attomolar levels”. In addition, the “Effect on p-IRF3” value in test [2] is recorded as “potent antagonistic behavior”. The Thermal shift result with hSTING CTD is “negative thermal shift”. Moreover, the “Antagonism of hSTING pathway in luciferase reporter assay” value in test [3] (compound 1 h, then 4 μM 2′,3′-cGAMP) is given as “inverse dose response; also recorded: antagonism of the hSTING^WT pathway”. In addition, the “Concentration of maximum inhibition” value in test [3] (reviewer's summary of IRF3 reporter assay) is recorded as 100 aM. On SUMO-hSTING CTD (50 nM STING, 50 nM 2′,3′-cGAMP), the “Lowest concentration at which effect on oligomerization is observed” value turned out to be 100 aM and the “Reduction in 2′,3′-cGAMP driven SUMO-hSTING CTD oligomerization” value is “alters the ability of SUMO-hSTING CTD to oligomerize”. For the same molecule, the “SUMO-hSTING CTD oligomerization without 2′,3′-cGAMP present” value at SUMO-hSTING CTD (50 nM STING, analyte alone) is on record as “moderate amount of oligomerization”. Further, at SUMO-hSTING CTD (100 aM, 50 nM STING CTD, reviewer's reading), the “Size of protein aggregates” value is given as “about 75 nm”.
